Experimental data published in patent US12102705B2, “Peptides having inhibitory activity on muscarinic receptor M3” (AZIENDE CHIMICHE RIUNITE ANGELINI FRANCESCO—A.C.R.A.F. …, priority 2018, dated 2024).
pIC50: −log10 of the molar value. Where a name gives a salt, the structure may show the parent alone. Peptide text beside a SMILES is read from it. * marks the point of attachment. Palmitoyl = CCCCCCCCCCCCCCCC(=O)*; Myristoyl = CCCCCCCCCCCCCC(=O)*

Assays:
Format in all cases: cell-based
[1] = system: human epidermal keratinocytes (HEKa); test: MTT cell viability assay in keratinocytes; conditions: as TFA-salt, any concentration assessed; keratinocytes and fibroblasts
Description: This example evaluated the effects of the tested peptides on human epidermal keratinocytes and dermal fibroblasts cell viability. The 3-(4,5-dimethyl-2-thiazolyl)-2,5-diphenyl-2H-tetrazolium bromide (MTT) assay was used to that monitor cell proliferation and viability based on the capacity of the mitochondrial dehydrogenase enzyme to break and transform the tetrazolium rings of MTT.
Epidermal keratinocytes were seeded in a previously coated 96 well-plate at 50-60% confluence in 100 μL of supplemented medium. Dermal fibroblasts were seeded in a 96 well-plate at 70% confluence in 100 μL supplemented medium. 24 hours after seeding, medium was replaced by fresh supplemented medium containing peptides dissolved at concentration range between 0.1 and 100 μM or SDS as reference of 100% toxicity or DMSO as vehicle for peptides. All test substances were incubated for 24 hours at 37° C. and 5% CO2. Afterwards, medium was replaced by 0.5 mg/mL of MTT solution for 4 h in complete medium. Then, medium was carefully removed and 150 μL/well of DMSO were added to solubilize formazan crystals. Plate was protected from light, shaken for 60 seconds and optical density was measured at 570 nm with a reference filter of 620 nm. Toxicity values were calculated as percentages by considering maximum cytotoxic effect to SDS-treated cells and minimum as non-treated cells. Table G details effects of Seq. ID No 1, 5, 6 and 7 peptides on keratinocytes and fibroblasts as percentage of cell viability inhibition.

[2] = molecular target: T1, human muscarinic receptor M3 (Homo sapiens, UniProt P20309); test: Inhibition of M3-acetylcholine activation, Fluo-4 NW calcium fluorescence; conditions: 50 min incubation, 10 nM acetylcholine; for inhibition at 10 µM / inhibition at 50 µM / inhibition at 100 µM: 50 min
T1 construct: expressed in transfected cells; cultured in Ham's F-12 medium
T1 sequence (P20309 whole entry): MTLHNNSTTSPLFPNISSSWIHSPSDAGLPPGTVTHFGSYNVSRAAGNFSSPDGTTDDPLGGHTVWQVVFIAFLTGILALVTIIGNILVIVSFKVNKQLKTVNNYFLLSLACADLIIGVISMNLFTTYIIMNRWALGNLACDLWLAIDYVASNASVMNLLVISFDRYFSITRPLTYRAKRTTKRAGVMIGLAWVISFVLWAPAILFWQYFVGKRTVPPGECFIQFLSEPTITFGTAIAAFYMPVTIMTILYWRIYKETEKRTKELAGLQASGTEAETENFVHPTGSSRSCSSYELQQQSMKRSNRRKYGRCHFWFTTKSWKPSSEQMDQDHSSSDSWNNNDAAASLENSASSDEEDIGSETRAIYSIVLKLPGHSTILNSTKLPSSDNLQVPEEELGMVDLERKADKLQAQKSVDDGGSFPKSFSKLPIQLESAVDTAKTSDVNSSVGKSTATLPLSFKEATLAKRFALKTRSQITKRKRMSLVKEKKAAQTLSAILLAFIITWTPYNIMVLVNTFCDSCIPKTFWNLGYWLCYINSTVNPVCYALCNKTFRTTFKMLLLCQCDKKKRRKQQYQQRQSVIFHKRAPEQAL
Description: (§1) Epithelial stable cell line constitutively expressing human muscarinic receptor M3 was used to assess peptides activity. Cells were seeded in 96-well plates at 50% cell confluence in 100 μL of complete Ham's F-12 medium. After 24 hours, medium was removed and cells were incubated with 90 μL/well of a solution of the peptides of the invention at 100, 50 or 10 μM or DMSO as vehicle. Peptides were dissolved in Fluo-4 NW (Invitrogen) fluorescent calcium probe assay buffer containing Probenecid, following manufacturer's instructions for 50 min at 37° C. in a CO2 incubator. Afterwards, M3 activity was determined by reading the fluorescence in a FLUOstar Galaxy reader (BMG LabTechnologies) using 485 nm filter for excitation and 520 nm for emission, recording signal before and after M3 activation with 10 nM acetylcholine. Fluorescence measurements were normalized to acetylcholine maximum fluorescence signal in vehicle treated cells. Atropine (100 nM) was used as positive control for inhibition. Inhibition values of M3 activity were calculated as percentages by considering maximum fluorescence corresponding to acetylcholine-M3 activation and minimum as non-stimulated cells. Table D details inhibition values of M3 activity inhibition obtained for the peptides of invention.

[3] = molecular target: T1, human muscarinic receptor M3; test: Time-dependent inhibition of M3 activity, Fluo-4 NW calcium fluorescence; conditions: peptide 50 μM, read-out: % Inhibition hM3 receptor activity
Description: Peptides of invention were designed to target the intracellular region of M3. Therefore, minimum time required to detect inhibitory effect on M3 activity was evaluated. For this purpose, inhibitory effect of peptides Seq. […] Epithelial stable cell line constitutively expressing human muscarinic receptor M3 was used to assess peptides activity. Cells were seeded in 96-well plates at 50% cell confluence in 100 μL of complete Ham's F-12 medium. After 24 hours, medium was removed and cells were incubated with 90 μL/well of Fluo-4 NW (Invitrogen) fluorescent calcium probe assay buffer containing probenecid, following manufacturer's instructions at 37° C. in a CO2 incubator. Peptides (50 μM), vehicle and atropine were incubated either with the probe (1 hour pre-incubation) or during fluorescence reading (direct effect). Afterwards, M3 activity was recorded for 20 cycles and direct effect peptides were added on cycle 3 after baseline assessment. Acetylcholine was added on cycle 13. Therefore, direct effect of peptides was monitored for 25 minutes. Inhibition values of M3 activity were calculated as percentages by considering maximum fluorescence corresponding to vehicle or non-treated cells acetylcholine-M3 activation and minimum as non-stimulated cells. Table E details inhibition values of M3 activity inhibition obtained for the peptides of invention.

[4] = molecular target: T1, human muscarinic receptor M3; test: Dose-response inhibitory effect on M3 activity (IC50)
Description: as §1
Characterization of Seq. ID No. 1, 3-8 peptides efficiency was obtained by calculating half maximal inhibitory concentration (IC50). For this purpose, experimental procedure regarding cell culture and fluorescent calcium probe assay was followed as described on Example 2. Peptides were assessed at concentrations between 0.1 and 100 μM and incubated for 1 hour together with Fluo-4 NW probe. Afterwards, M3 activity was determined by reading the fluorescence in a FLUOstar Galaxy reader (BMG LabTechnologies) using 485 nm filter for excitation and 520 nm for emission, recording signal before and after M3 activation with acetylcholine. Fluorescence measurements were standardized with regard to the maximum fluorescence signal detected with acetylcholine stimulation in vehicle treated cells. Inhibition values of M3 activity were calculated as percentages by considering maximum fluorescence corresponding to acetylcholine-M3 activation and minimum as non-stimulated cells. Percentage inhibition data was fitted to a sigmoidal curve to obtain IC50. Table F details inhibition values for IC50

[5] = 25 min, 25 minutes (direct effect)
[6] = 60 minutes (1 hour pre-incubation)

Row | Molecule | inhibition at 10 µM ([2]; peptide 10 μM) | inhibition at 50 µM ([2]; peptide 50 μM) | inhibition at 100 µM ([2]; peptide 100 μM) | inhibition at 50 µM [3, 5] | inhibition at 50 µM [3, 6] | pIC50 [4] | % M3 inhibition ([2]; peptide 10 μM) | other results
1 | CCCCCCCCCCCCCCCC(=O)N[C@@H](Cc1c[nH]c2ccccc12)C(=O)N[C@@H](CCSC)C(=O)N[C@@H](CCCNC(=N)N)C(=O)N[C@@H](CC(C)C)C(N)=O [Seq. ID No. 1 Palmitoyl (TFA salt)] (Palmitoyl-WMRL-NH2) |  |  |  |  |  |  |  | effect on cell proliferation [1]: did not affect cell proliferation
2 | CCCCCCCCCCCCCCCC(=O)N[C@@H](Cc1c[nH]c2ccccc12)C(=O)N[C@@H](CCSC)C(=O)N[C@@H](CCCNC(=N)N)C(=O)N[C@@H](CC(C)C)C(N)=O [Seq. ID No. 1 Palmitoyl] (Palmitoyl-WMRL-NH2) | 15.4% | 70.9% | 95.6% | 25.1% | 69.5% | 4.42 |  | 
3 | CCCCCCCCCCCCCCCC(=O)N[C@@H](Cc1c[nH]c2ccccc12)C(=O)N[C@@H](CCSC)C(=O)N[C@@H](CCCNC(=N)N)C(=O)N[C@@H](CC(C)C)C(=O)N[C@@H](CCCCN)C(=O)N[C@@H](C)C(N)=O [Seq. ID No. 3 Palmitoyl] (Palmitoyl-WMRLKA-NH2) | 41% | 73.7% | 75.7% | 16.4% | 73% | 4.90 |  | 
4 | CCCCCCCCCCCCCCCC(=O)N[C@@H](Cc1c[nH]c2ccccc12)C(=O)N[C@@H](CCSC)C(=O)N[C@@H](CC(N)=O)C(=O)N[C@@H](CC(C)C)C(=O)N[C@@H](CCCCN)C(=O)N[C@H](C(N)=O)[C@@H](C)O [Seq. ID No. 4 Palmitoyl] (Palmitoyl-WMNLKT-NH2) | 35.3% | 59.6% | 60.6% | 11.5% | 69.1% | 5.10 |  | 
5 | CCCCCCCCCCCCCCCC(=O)N[C@@H](Cc1c[nH]c2ccccc12)C(=O)N[C@@H](CCSC)C(=O)N[C@@H](Cc1ccccc1)C(=O)N[C@@H](CC(C)C)C(=O)N[C@@H](CCCCN)C(N)=O [Seq. ID No. 5 Palmitoyl (TFA salt)] (Palmitoyl-WMFLK-NH2) |  |  |  |  |  |  |  | effect on cell proliferation [1]: did not affect cell proliferation
6 | CCCCCCCCCCCCCCCC(=O)N[C@@H](Cc1c[nH]c2ccccc12)C(=O)N[C@@H](CCSC)C(=O)N[C@@H](Cc1ccccc1)C(=O)N[C@@H](CC(C)C)C(=O)N[C@@H](CCCCN)C(N)=O [Seq. ID No. 5 Palmitoyl] (Palmitoyl-WMFLK-NH2) | 0% | 45.7% | 80.6% | -7.1% | 84.4% | 4.21 |  | 
7 | CCCCCCCCCCCCCC(=O)N[C@@H](CCCNC(=N)N)C(=O)N[C@@H](CCSC)C(=O)N[C@@H](Cc1ccc(O)cc1)C(=O)N[C@@H](CCCCN)C(=O)N[C@@H](CCSC)C(=O)N[C@@H](CCSC)C(=O)N[C@@H](C)C(=O)NCC(=O)N[C@@H](CCSC)C(=O)N[C@@H](Cc1ccc(O)cc1)C(=O)N[C@@H](CC(C)C)C(=O)N[C@@H](CCCNC(=N)N)C(N)=O [Seq. ID No. 6 Myristoyl] (Myristoyl-RMYKMMAGMYLR-NH2) | 14.8% | 56.4% | 92.1% | -20.2% | 54.7% | 4.26 |  | 
8 | CCCCCCCCCCCCCC(=O)N[C@@H](CCCNC(=N)N)C(=O)N[C@H](C(=O)N[C@@H](CCSC)C(=O)N[C@@H](Cc1ccc(O)cc1)C(=O)N[C@@H](CCCCN)C(=O)N[C@@H](CCSC)C(=O)N[C@@H](CC(N)=O)C(=O)N[C@@H](CCCCN)C(=O)N[C@@H](CCCNC(=N)N)C(=O)N[C@@H](CC(=O)O)C(=O)N[C@@H](Cc1ccc(O)cc1)C(N)=O)C(C)C [Seq. ID No. 7 Myristoyl] (Myristoyl-RVMYKMNKRDY-NH2) | 15.9% | 54.8% | 92.4% | 16.4% | 82.7% | 4.26 |  | 
9 | CCCCCCCCCCCCCC(=O)N[C@@H](CCCNC(=N)N)C(=O)N[C@H](C(=O)N[C@@H](CCSC)C(=O)N[C@@H](Cc1ccccc1)C(=O)N[C@@H](CCCCN)C(=O)N[C@@H](CCSC)C(=O)N[C@@H](Cc1ccccc1)C(=O)N[C@@H](CCCCN)C(=O)N[C@@H](CCCNC(=N)N)C(=O)N[C@@H](CC(=O)O)C(=O)N[C@@H](Cc1ccc(O)cc1)C(N)=O)C(C)C [Seq. ID No. 8 Myristoyl] (Myristoyl-RVMFKMFKRDY-NH2) | 42.5% | 71.7% | 93.8% | 6.1% | 87.1% | 5.01 |  | 
10 | Ac-RMYKMMAGMYLR-NH2 [Seq. ID No. 6 Acetyl (TFA salt)] |  |  |  |  |  |  |  | effect on cell proliferation [1]: did not affect cell proliferation
11 | Ac-RVMYKMNKRDY-NH2 [Seq. ID No. 7 Acetyl (TFA salt)] |  |  |  |  |  |  |  | effect on cell proliferation [1]: did not affect cell proliferation
12 | Seq. ID No. 2 Acetyl: Nt-acetyl WMRLK, C terminus amidated (Ac-WMRLK-NH2) |  |  |  |  |  |  | 0.0% | % M3 inhibition ([2]; peptide 50 μM): 9.1%; % M3 inhibition ([2]; peptide 100 μM): 24.6%
13 | Seq. ID No. 5 Acetyl: Nt-acetyl WMFLK, C terminus amidated (Ac-WMFLK-NH2) |  |  |  |  |  |  | 3.9% | % M3 inhibition ([2]; peptide 50 μM): 6.2%; % M3 inhibition ([2]; peptide 100 μM): 15.1%
14 | Seq. ID No. 6 Acetyl: Nt-acetyl RMYKMMAGMYLR, C terminus amidated (Ac-RMYKMMAGMYLR-NH2) |  |  |  |  |  |  | 3.0% | % M3 inhibition ([2]; peptide 50 μM): 26.4%; % M3 inhibition ([2]; peptide 100 μM): 32.5%
15 | Seq. ID No. 6 Palmitoyl: Nt-palmitoyl RMYKMMAGMYLR, C terminus amidated (Palmitoyl-RMYKMMAGMYLR-NH2) |  |  |  |  |  |  | 34.5% | 
16 | Seq. ID No. 7 Acetyl: Nt-acetyl RVMYKMNKRDY, C terminus amidated (Ac-RVMYKMNKRDY-NH2) |  |  |  |  |  |  | 8.6% | % M3 inhibition ([2]; peptide 50 μM): 8.3%; % M3 inhibition ([2]; peptide 100 μM): 20.6%
17 | Seq. ID No. 7 Palmitoyl: Nt-palmitoyl RVMYKMNKRDY, C terminus amidated (Palmitoyl-RVMYKMNKRDY-NH2) |  |  |  |  |  |  | 47.4% | 
18 | Seq. ID No. 8 Acetyl: Nt-acetyl RVMFKMFKRDY, C terminus amidated (Ac-RVMFKMFKRDY-NH2) |  |  |  |  |  |  | 21.5% | % M3 inhibition ([2]; peptide 50 μM): 12.4%; % M3 inhibition ([2]; peptide 100 μM): 26.1%
19 | Seq. ID No. 8 Palmitoyl: Nt-palmitoyl RVMFKMFKRDY, C terminus amidated (Palmitoyl-RVMFKMFKRDY-NH2) |  |  |  |  |  |  | 32.7% | 
